Laboratory results reported in patent US8399440B2, “Disease modifying anti-arthritic activity of 2-methoxyestradiol” (EntreMed, Inc., priority 2006, dated 2013).

Tested on: Arthrogen Collagen MAb-Induced Arthritis
Experiment: Arthrogen collagen MAb-induced arthritis (Arthrogen-CIA model of RA)
Assay type: in vivo, Mouse (Balb/C)
Conditions: Study SMP05-046; either drug alone (2ME2 10 or 100 mg/kg/d PO; MTX 0.1 or 1 mg/kg/d IP)

pathology in the liver: No pathology
Compound: CN(Cc1cnc2nc(N)nc(N)c2n1)c1ccc(C(=O)N[C@@H](CCC(=O)O)C(=O)O)cc1 [MTX, methotrexate, reference compound]
